Laboratory results reported in patent US10232013B2, “Use of an antimicrobial peptide TP4 in treating a cancer” (Academia Sinica, priority 2016, dated 2019).
Marks after values point to notes of the source that are not given here. Where no end group is shown, it is not given here.

What was measured:
[1] = test system: MCF7 cells; assay: MTS cell viability assay, MCF7; format: cell-based, human; details: mean±SD
Method: Cell-lines used in this study were purchased from the Bioresource Collection and Research Center (BCRC) in and the cells were cultured by the standard cell culture procedures and conditions provided by the BCRC. MB231 (BCRC 60425), MB453 (BCRC 60429), and HDF cells were cultured as previously described by Ting et al. MCF7 […] cells were maintained in α-MEM medium (ThermoFisher Scientific) supplemented with 2 mM L-glutamine, 10% FBS, 0.1 mM non-essential amino acids, 1 mM sodium pyruvate, and antibiotics (100 U mL^−1 penicillin G and […] streptomycin). M10 (BCRC 60197) cells were maintained in α-MEM medium (ThermoFisher Scientific) supplemented with 10% FBS and antibiotics. With the exception of MB231 and MB453, all cells were cultured at 37° C. with 5% CO2. For the cell viability and transfection assay, 1×10^4 cells [5×10^3 M10 cells were seeded and cultured for 48 h to allow the cells sufficient time for attachment] were seeded into the wells of a 96-well plate and cultured overnight. For the transfection assays, cells were transfected with 0.1-0.4 μg FOSB/FOSAB expression plasmid (Origene Technology Inc.) and cell viability was determined after 72 h. The transfection efficiencies (number of cells expressing eGFP/all cells) of the MB231 transfection assays were determined by observing ten randomly selected fields (from three independent transfections) of control GFP plasmid transfections under an inverted microscope (Olympus, IX71) coupled to a digital camera (Olympus DP80), using an […] (LCPlanFI 20×/0.40 Ph1). CellSens standard software (Olympus) was used for image acquisition. During the drug treatment assay, inhibitors (PD98059, BAPTA-AM, and AlP II) were added 30 min prior to TP4, and cell viability was determined at indicated time-points. Transfection was performed using LipofectAMINE™ 3000 (ThermoFisher Scientific), according to the manufacturer's recommendations. Knock-down cells were generated by transducing MB231 cells with pre-synthesized FOSB (or control) shRNA lentiviral particles (Santa Cruz Biotechnology), and selecting puromycin-resistant cells in accordance with the manufacturer's standard protocol. MB231 or M10 cells stably expressing eGFP or mOrange2 were generated through transfection with peGFP-puromycin or pmOrange2-C1 plasmid, followed by puromycin (5 μg mL^−1) or G418 (500 μg mL^−1) selection as described above.
Cell viability was quantitatively analyzed using the CellTiter-Glo® Luminescent Cell Viability Assay kit (ATP assay) and CellTiter 96® AQueous Non-Radioactive Cell Proliferation Assay kit (MTS assay) (Promega) in accordance with the manufacturer's protocol. For MTS assay, 1×10^4 cells were seeded into the wells of a 96-well plate and cultured overnight [5×10^3 M10 cells were seeded and cultured for 48 h to enable sufficient well attachment]. Cells were subsequently treated with different doses of TP4 (2.5-20 μg mL^−1) and harvested at the indicated time-points (3-24 h). Reaction mixtures (20 μL: MTS+PMS, using a ratio 20:1) were directly added to the cells, and the plates were incubated for 3 h at 37° C. Absorbance at 490 nm is directly proportional to the number of living cells in culture and was measured using a photometer (SpectraMax® i3, Molecular Devices). ATP assay was performed as previously described by Ting et al. Lactate dehydrogenase (LDH) assays were performed by quantitatively measuring cell lysis with a Cytotoxicity Detection Kit^PLUS (LDH) (Roche) in accordance with the manufacturer's protocol. The LDH standard was purchased from Cayman Chemical. Briefly, 1×10^4 cells were seeded into the wells of a 96-well plate and cultured overnight. Culture media were replaced with fresh medium containing 1% FBS and cells were subsequently treated with different doses of TP4 (2.5-20 μg mL^−1). Supernatants were harvested at 3 h. […]

[2] = test system: MB231 tumors; parameters: species or system BALB/c nu/nu mice; details: in vivo
Excerpt: Female BALB/c nu/nu mice were obtained from BioLASCO Taiwan, Co., Ltd., and housed at the Laboratory Animal Facility, National Taiwan Ocean University, Keelung, Taiwan. Mice were maintained in pathogen-free sterile isolators, according to the guidelines of the Council of Agriculture (COA, Taiwan), and all food, water, caging, and bedding were sterilized before use. The animal protocol (103034) was approved by the Institutional Animal Care and Use Committee (IACUC) of the College of Life Science, National Taiwan Ocean University. For the TP4 treatment assay, nude mice with pre-growth MB231 tumors (n=5 for each group) were subcutaneously injected with TP4 (500 μg in 50 μL distilled water plus 10 μL KY jelly (Johnson & Johnson)) every two days for a total of fourteen times, by which time the tumors had reached an average volume of 30-50 mm^3 in size. Age-matched control nude mice without tumor xenografts were injected with KY jelly (10 μL plus 50 μL distilled water). Tumor size was calculated every two days, using the following formula: volume=[(height×length×width)×3.1416]/6. Mice were sacrificed 28 days after the beginning of TP4 treatment, and the tumors were harvested and weighed. Tumor samples were fixed with formalin and embedded with paraffin. Paraffin sections were stained by Hematoxylin & Eosin (H&E) and immunostained with Ki-67 antibody (Cell Signaling, clone D2H10, 1:100). […]

FIHHIIGGLFSAGKAIHRLIRRRRR [TP4, tilapia piscidin 4]
Cellular toxicity (cell viability), MTS assay ([1]; MCF7, TP4 2.5 μg/mL, 3 h): 98.00 ± 6.05^a
Cellular toxicity (cell viability), MTS assay ([1]; MCF7, TP4 2.5 μg/mL, 6 h): 91.20 ± 6.51^b
Cellular toxicity (cell viability), MTS assay ([1]; MCF7, TP4 2.5 μg/mL, 12 h): 93.01 ± 10.60^b
Cellular toxicity (cell viability), MTS assay ([1]; MCF7, TP4 2.5 μg/mL, 24 h): 90.83 ± 5.30^b
Cellular toxicity (cell viability), MTS assay ([1]; MCF7, TP4 5.0 μg/mL, 3 h): 83.74 ± 6.10^d
Cellular toxicity (cell viability), MTS assay ([1]; MCF7, TP4 5.0 μg/mL, 6 h): 79.17 ± 12.06^d
Cellular toxicity (cell viability), MTS assay ([1]; MCF7, TP4 5.0 μg/mL, 12 h): 77.79 ± 7.73^d
Cellular toxicity (cell viability), MTS assay ([1]; MCF7, TP4 5.0 μg/mL, 24 h): 75.19 ± 11.28^d
Cellular toxicity (cell viability), MTS assay ([1]; MCF7, TP4 10.0 μg/mL, 3 h): 75.01 ± 11.15^d
Cellular toxicity (cell viability), MTS assay ([1]; MCF7, TP4 10.0 μg/mL, 6 h): 70.30 ± 12.26^d
Cellular toxicity (cell viability), MTS assay ([1]; MCF7, TP4 10.0 μg/mL, 12 h): 68.89 ± 6.54^d
Cellular toxicity (cell viability), MTS assay ([1]; MCF7, TP4 10.0 μg/mL, 24 h): 67.00 ± 10.90^d
Cellular toxicity (cell viability), MTS assay ([1]; MCF7, TP4 15.0 μg/mL, 3 h): 45.15 ± 9.89^d
Cellular toxicity (cell viability), MTS assay ([1]; MCF7, TP4 15.0 μg/mL, 6 h): 28.28 ± 6.29^d
Cellular toxicity (cell viability), MTS assay ([1]; MCF7, TP4 15.0 μg/mL, 12 h): 26.23 ± 6.08^d
Cellular toxicity (cell viability), MTS assay ([1]; MCF7, TP4 15.0 μg/mL, 24 h): 25.09 ± 3.83^d
Cellular toxicity (cell viability), MTS assay ([1]; MCF7, TP4 20.0 μg/mL, 3 h): 24.63 ± 3.80^d
Cellular toxicity (cell viability), MTS assay ([1]; MCF7, TP4 20.0 μg/mL, 6 h): 15.48 ± 2.33^d
Cellular toxicity (cell viability), MTS assay ([1]; MCF7, TP4 20.0 μg/mL, 12 h): 14.36 ± 2.10^d
Cellular toxicity (cell viability), MTS assay ([1]; MCF7, TP4 20.0 μg/mL, 24 h): 11.90 ± 3.39^d
mouse body weight [2]: no significant differences
body weight and adverse side-effects ([2]; mouse): without affecting body weight or causing adverse side-effects
